Entries after “also recorded” stand apart in the source; their conditions may differ. Like-named read-outs stand apart in the source and are kept apart here. Marks after values point to notes of the source that are not given here.
How the values were obtained:
Chimera 1 [1] = biological target: T1, Chimera 1 (Homo sapiens, UniProt P36544, M226I/T225V); test: Two electrode voltage clamp in Xenopus oocytes (POETs), agonist and modulator responses; format: cell-based; set-up: expressed in transfected cells; host or cells: Xenopus laevis oocytes (transient, A1); details: for Percentage potentiation of submaximum agonist-evoked responses (mean±S.E.M.): 100 μM ACh
[2] = biological target: T2, rat brain α7* nicotinic acetylcholine receptors (Rattus norvegicus, UniProt Q05941); test: [3H]A-585539 radioligand binding, rat brain homogenates; details: for Competition / displacement of [3H]A-585539 binding: rat cortex, increasing concentrations
T2 construct: expressed both as a native (rat cortex) or α7/5-HT3 chimeric receptor; from tissue; host or cells: rat brain / rat cortex homogenates

Chimera 2 [3] = biological target: T3, Chimera 2 (Homo sapiens, UniProt P36544, M226I/T225V); test: Whole cell patch clamp in HEK-293 cells; format: cell-based; set-up: expressed in transfected cells; details: for Direct current activation by modulator alone: genistein 100 μM, 5-HI 10 mM; for Positive allosteric modulation of ACh-evoked current: genistein 30-50 μM, 5-HI 1 mM
[4] = biological target: T4, wild-type human 5-HT3A receptors (Homo sapiens, UniProt P46098); test: Two electrode voltage clamp in Xenopus oocytes, agonist and modulator responses; format: cell-based; details: for Percentage potentiation of submaximum agonist-evoked responses (mean±S.E.M.): 1-3 μM 5-HT
T4 construct: expressed in transfected cells; host or cells: Xenopus laevis oocytes
T4 sequence (P46098 1-484 isoform P46098-4): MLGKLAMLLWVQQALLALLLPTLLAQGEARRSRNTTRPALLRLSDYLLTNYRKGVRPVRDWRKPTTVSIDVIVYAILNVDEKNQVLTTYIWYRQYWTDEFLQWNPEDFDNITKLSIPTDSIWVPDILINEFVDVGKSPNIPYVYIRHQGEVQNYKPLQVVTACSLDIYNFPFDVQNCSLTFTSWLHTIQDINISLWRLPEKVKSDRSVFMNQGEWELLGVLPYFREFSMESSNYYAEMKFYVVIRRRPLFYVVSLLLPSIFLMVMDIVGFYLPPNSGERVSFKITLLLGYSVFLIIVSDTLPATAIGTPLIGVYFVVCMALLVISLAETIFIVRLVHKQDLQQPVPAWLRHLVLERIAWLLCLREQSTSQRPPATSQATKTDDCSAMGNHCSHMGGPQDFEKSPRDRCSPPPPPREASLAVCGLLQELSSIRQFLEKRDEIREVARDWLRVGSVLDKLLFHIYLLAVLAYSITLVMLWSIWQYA

Chimera 2 [5] = biological target: T3, Chimera 2; test: [3H]A-585539 radioligand binding, HEK-293 membranes/homogenates; set-up: expressed in transfected cells; details: for Competition / displacement of [3H]A-585539 binding: increasing concentrations
Chimera 1 [6] = biological target: T1, Chimera 1; test: Membrane potential imaging (FLIPR-FMP) in HEK-293 cells; format: cell-based; set-up: expressed in transfected cells; details: for Modulation of submaximum agonist-evoked membrane potential response (words): HEK-293 cells, FMP; for Maximum positive allosteric modulation efficacy: submaximum NS6784 120-200 nM
[7] = biological target: T5, wild-type α7 nicotinic acetylcholine receptor (Homo sapiens, UniProt P36544); test: Two electrode voltage clamp in Xenopus oocytes, agonist and modulator responses; format: cell-based; details: for Percentage potentiation of submaximum agonist-evoked responses (mean±S.E.M.): 100 μM ACh
T5 construct: expressed in transfected cells; host or cells: Xenopus laevis oocytes

Chimera 2 [8] = biological target: T3, Chimera 2; test: Membrane potential imaging (FLIPR-FMP) in HEK-293 cells; format: cell-based; set-up: expressed in transfected cells; details: for Modulation of submaximum agonist-evoked membrane potential response (words): HEK-293 cells, FMP; for EC50: read-out: FMP imaging: positive allosteric modulation EC50 (95% C.I.), submaximum NS6784 (60-70 nM); for Maximum positive allosteric modulation efficacy: submaximum NS6784 60-70 nM
Chimera 2 [9] = biological target: T3, Chimera 2; test: Two electrode voltage clamp in Xenopus oocytes (POETs), agonist and modulator responses; format: cell-based; set-up: expressed in transfected cells; host or cells: Xenopus laevis oocytes (transient, A2); details: for Percentage potentiation of submaximum agonist-evoked responses (mean±S.E.M.): 10-30 μM ACh; for EC50: read-out: Positive allosteric modulation potency, two electrode voltage clamp: EC50 (95% C.I.)
[10] = Positive allosteric modulation potency, two electrode voltage clamp: EC50 (95% C.I.), submaximum ACh (100 μM)-evoked response

T2 sequence (Q05941 23-502): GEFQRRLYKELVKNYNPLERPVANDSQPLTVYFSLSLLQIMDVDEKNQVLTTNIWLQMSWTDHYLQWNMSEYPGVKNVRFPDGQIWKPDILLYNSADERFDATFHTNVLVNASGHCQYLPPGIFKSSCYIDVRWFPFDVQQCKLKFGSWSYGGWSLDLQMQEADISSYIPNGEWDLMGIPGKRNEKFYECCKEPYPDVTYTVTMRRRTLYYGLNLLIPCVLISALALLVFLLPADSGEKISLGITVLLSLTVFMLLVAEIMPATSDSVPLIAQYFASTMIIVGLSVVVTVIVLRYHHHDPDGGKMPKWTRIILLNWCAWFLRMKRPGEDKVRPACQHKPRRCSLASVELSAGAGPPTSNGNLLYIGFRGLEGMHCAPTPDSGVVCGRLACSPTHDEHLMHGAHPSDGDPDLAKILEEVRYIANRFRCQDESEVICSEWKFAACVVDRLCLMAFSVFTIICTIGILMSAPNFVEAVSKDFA
T5 sequence (P36544 23-502): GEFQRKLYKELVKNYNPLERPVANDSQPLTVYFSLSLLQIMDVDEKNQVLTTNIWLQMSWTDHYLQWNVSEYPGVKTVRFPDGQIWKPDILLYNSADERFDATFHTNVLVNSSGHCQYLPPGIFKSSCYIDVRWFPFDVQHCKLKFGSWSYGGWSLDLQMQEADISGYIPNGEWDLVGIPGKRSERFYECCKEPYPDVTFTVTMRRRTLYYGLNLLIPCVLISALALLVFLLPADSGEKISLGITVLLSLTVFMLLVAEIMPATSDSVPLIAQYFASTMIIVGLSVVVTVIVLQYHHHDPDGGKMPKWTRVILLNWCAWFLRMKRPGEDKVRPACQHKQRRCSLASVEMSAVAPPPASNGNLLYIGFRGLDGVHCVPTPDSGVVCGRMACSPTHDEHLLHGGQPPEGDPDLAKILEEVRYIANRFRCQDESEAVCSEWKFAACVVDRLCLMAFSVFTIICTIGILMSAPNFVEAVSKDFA
T3 sequence (P36544 with tags, fused parts or gaps T225V/M226I): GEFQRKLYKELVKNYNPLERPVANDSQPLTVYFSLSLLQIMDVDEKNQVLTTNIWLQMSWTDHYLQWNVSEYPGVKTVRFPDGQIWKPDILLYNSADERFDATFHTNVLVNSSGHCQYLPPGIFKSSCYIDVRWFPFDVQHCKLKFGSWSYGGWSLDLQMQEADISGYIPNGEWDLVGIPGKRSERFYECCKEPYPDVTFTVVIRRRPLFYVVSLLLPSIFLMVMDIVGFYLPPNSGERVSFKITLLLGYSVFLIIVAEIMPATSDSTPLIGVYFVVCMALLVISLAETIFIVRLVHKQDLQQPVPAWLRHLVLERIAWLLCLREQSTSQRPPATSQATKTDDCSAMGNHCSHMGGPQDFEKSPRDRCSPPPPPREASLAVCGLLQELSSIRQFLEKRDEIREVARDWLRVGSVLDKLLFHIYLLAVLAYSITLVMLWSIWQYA
T1 sequence (P36544 with tags, fused parts or gaps T225V/M226I): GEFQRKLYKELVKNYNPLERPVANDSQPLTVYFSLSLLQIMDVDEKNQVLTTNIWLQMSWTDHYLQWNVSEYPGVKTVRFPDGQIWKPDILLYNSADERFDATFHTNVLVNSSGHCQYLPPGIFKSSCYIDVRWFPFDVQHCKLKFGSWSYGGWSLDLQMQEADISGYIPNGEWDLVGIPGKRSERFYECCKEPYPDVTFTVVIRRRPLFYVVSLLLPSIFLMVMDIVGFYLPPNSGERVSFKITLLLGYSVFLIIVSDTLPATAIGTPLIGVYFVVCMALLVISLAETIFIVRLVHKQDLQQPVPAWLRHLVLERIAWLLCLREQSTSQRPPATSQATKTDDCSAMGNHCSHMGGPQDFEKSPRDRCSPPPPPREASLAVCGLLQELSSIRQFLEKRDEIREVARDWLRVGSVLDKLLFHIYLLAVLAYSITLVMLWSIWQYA

| SMILES | Percentage potentiation of submaximum agonist-evoked responses (mean±S.E.M.) (Chimera 1 [1]) | Competition / displacement of [3H]A-585539 binding [2] | Direct current activation by modulator alone (Chimera 2 [3]) | Positive allosteric modulation of ACh-evoked current (Chimera 2 [3]) | Percentage potentiation of submaximum agonist-evoked responses (mean±S.E.M.) [4] | Effect of modulator on agonist (5-HT)-evoked current ([4]; Xenopus oocytes) | Competition / displacement of [3H]A-585539 binding (Chimera 2 [5]) | Modulation of submaximum agonist-evoked membrane potential response (words) (Chimera 1 [6]) | Maximum positive allosteric modulation efficacy (Chimera 1 [6]) | Percentage potentiation of submaximum agonist-evoked responses (mean±S.E.M.) [7] | EC50 [7, 10] | Effect of modulator on ACh-evoked current (words) ([7]; Xenopus oocytes) | Modulation of submaximum agonist-evoked membrane potential response (words) (Chimera 2 [8]) | EC50 (Chimera 2 [8]) | Maximum positive allosteric modulation efficacy (Chimera 2 [8]) | Percentage potentiation of submaximum agonist-evoked responses (mean±S.E.M.) (Chimera 2 [9]) | Direct current activation by modulator alone (Chimera 2 [9]; Xenopus oocytes) | other results |
| --- | --- | --- | --- | --- | --- | --- | --- | --- | --- | --- | --- | --- | --- | --- | --- | --- | --- | --- |
| Oc1ccc2[nH]ccc2c1 [5-HI, 5-hydroxyindole] | 428±23% | neither compound effectively displaced the binding | Qualitatively similar responses were also obtained | effective as positive allosteric modulators | 58±9% | Neither compound increased the responses | neither compound effectively displaced the binding | potentiated the submaximum α7 agonist (NS6784) evoked membrane potential depolarization; also recorded: effective in both Chimeras | 204±9% | 516±59% | 500 to 700 µM | substantial increase in the amplitude of the subsequent ACh-evoked current | potentiated submaximum NS6784 evoked responses; also recorded: effective as positive allosteric modulators; also recorded: effective in both Chimeras | 324 µM | 177±8% | 262±39% | could also evoke responses in Chimera 2; also recorded: evoked unique agonist-like current | ng of ACh curve after modulator (Chimera 1 [1]; 1 mM 5-HI): 1.4 ± 0.13; Effect of modulator on ACh-evoked current (words) (Chimera 1 [1]; Xenopus oocytes): positive modulation is still observed; EC50 (Chimera 1 [1]; read-out: Positive allosteric modulation potency, two electrode voltage clamp: EC50 (95% C.I.), submaximum ACh (100 μM)-evoked response): 500 µM; Directly evoked peak response normalized to 100 μM ACh (Chimera 2 [3]; 10 mM): 26.4±7.1%; Directly evoked total charge (integral) normalized to 100 μM ACh (Chimera 2 [3]; 10 mM): 52.4±10.3%; inhibition at 10000 µM ([4]; at 10,000 μM (10 mM), read-out: Observed % inhibitory effect on submaximum 5-HT-evoked response): ~40%; Modulation of submaximum agonist-evoked membrane potential response (words) (Chimera 1 [6]; listed as 5-hydroxyindole): able to potentiate both Chimeras; EC50 (Chimera 1 [6]; read-out: FMP imaging: positive allosteric modulation EC50 (95% C.I.), submaximum NS6784 (120-200 nM)): 234 µM; EC50 [7]: 667 µM; ng of ACh curve after modulator ([7]; 1 mM 5-HI): 1.97 ± 0.84; Modulation of submaximum agonist-evoked membrane potential response (words) (Chimera 2 [8]; listed as 5-hydroxyindole): able to potentiate both Chimeras; Peak current amplitude evoked by compound alone, normalized to 10 μM ACh (Chimera 2 [9]; 1 mM): 5.4+/−1.8%; ng of ACh curve after modulator (Chimera 2 [9]; 1 mM 5-HI): 1.35 ± 0.25; Peak current amplitude evoked by compound alone, normalized to 10 μM ACh (Chimera 2 [9]; 3 mM): 37.8+/−11.6%; EC50 (Chimera 2 [9]; submaximum ACh (10-30 μM)-evoked response): 496 µM |
| O=c1c(-c2ccc(O)cc2)coc2cc(O)cc(O)c12 [Genistein, genistein] | 65±27% | neither compound effectively displaced the binding | directly activated the Chimera 2 receptor current | effective as positive allosteric modulators | 52±7% | Neither compound increased the responses | neither compound effectively displaced the binding | unable to do so | 14±3% | 246±17% | 10.6 µM | primarily increasing the current amplitude | enhanced agonist-evoked depolarization | 4.3 µM | 221±30% | 234±19% | activated currents at 30 and 100 μM; also recorded: evoked unique agonist-like current | Direct current activation by modulator alone (Chimera 1 [1]; Xenopus oocytes): did not activate currents; inhibition at 100 µM (Chimera 1 [1]; read-out: Observed % inhibitory effect on submaximum ACh-evoked response): ~35%; Effect on [3H]A-585539 saturation binding ([2]; 10 μM): did not alter the saturation profile; also recorded: did not alter the saturation binding; Directly evoked peak response normalized to 100 μM ACh (Chimera 2 [3]; 100 μM): 72.6±22.2%; Directly evoked total charge (integral) normalized to 100 μM ACh (Chimera 2 [3]; 100 μM): 162.5±5.3%; Direct current activation by modulator alone ([4]; Xenopus oocytes): did not activate currents; Observed % inhibitory effect on submaximum 5-HT-evoked response ([4]; at 30 μM): ~48%^a at 30; inhibition at 30 µM ([4]; at 30 μM, read-out: Observed % inhibitory effect on submaximum 5-HT-evoked response): ~50%; Effect on [3H]A-585539 saturation binding (Chimera 2 [5]; 10 μM): did not alter the saturation profile; also recorded: did not alter the saturation binding; Modulation of submaximum agonist-evoked membrane potential response (words) (Chimera 1 [6]; listed as genistein): not effective as positive allosteric modulator; also recorded: inhibited Chimera 1; IC50 (Chimera 1 [6]; read-out: FMP imaging: IC50 (95% C.I.), inhibition of agonist-evoked response, submaximum NS6784): 23.3 µM; Direct current activation by modulator alone ([7]; Xenopus oocytes): did not activate currents; Fold increase of submaximum ACh-evoked currents ([7]; Xenopus oocytes): 2-3 fold; Modulation of submaximum agonist-evoked membrane potential response (words) (Chimera 2 [8]; listed as genestein): very effective; Modulation of submaximum agonist-evoked membrane potential response (words) (Chimera 2 [8]; listed as genistein): potentiated submaximum NS6784 evoked responses; also recorded: potentiated Chimera 2 receptors; Effect of modulator on ACh-evoked current (words) (Chimera 2 [9]; Xenopus oocytes): potentiated peak amplitude of ACh current responses; Fold increase of submaximum ACh-evoked currents (Chimera 2 [9]; Xenopus oocytes): 2-3 fold; Effect of modulator on ACh-evoked current (words) (Chimera 2 [9]; Xenopus oocytes, listed as genestein): potentiated ACh responses in Chimera 2; EC50 (Chimera 2 [9]): 5.2 µM |
